Data: ChEMBL document CHEMBL4507280 (2021)

Columns and labels:
[1] = biological target: Phosphatidylinositol 4-phosphate 5-kinase type-1 alpha (Homo sapiens) (UniProt Q99755); details: Compound concentration 1000.0 nM
[2] = biological target: Tyrosine-protein kinase FRK (Homo sapiens) (UniProt P42685); details: Compound concentration 1000.0 nM
[3] = biological target: Serine/threonine-protein kinase MARK2 (Homo sapiens) (UniProt Q7KZI7); details: Compound concentration 1000.0 nM
[4] = biological target: 5-hydroxytryptamine receptor 2A (Homo sapiens) (UniProt P28223); details: Compound concentration 10.0 uM
[5] = biological target: Misshapen-like kinase 1 (Homo sapiens) (UniProt Q8N4C8); details: Compound concentration 1000.0 nM
Chain of Misshapen-like kinase 1 (Homo sapiens) (Q8N4C8 whole entry, looked up): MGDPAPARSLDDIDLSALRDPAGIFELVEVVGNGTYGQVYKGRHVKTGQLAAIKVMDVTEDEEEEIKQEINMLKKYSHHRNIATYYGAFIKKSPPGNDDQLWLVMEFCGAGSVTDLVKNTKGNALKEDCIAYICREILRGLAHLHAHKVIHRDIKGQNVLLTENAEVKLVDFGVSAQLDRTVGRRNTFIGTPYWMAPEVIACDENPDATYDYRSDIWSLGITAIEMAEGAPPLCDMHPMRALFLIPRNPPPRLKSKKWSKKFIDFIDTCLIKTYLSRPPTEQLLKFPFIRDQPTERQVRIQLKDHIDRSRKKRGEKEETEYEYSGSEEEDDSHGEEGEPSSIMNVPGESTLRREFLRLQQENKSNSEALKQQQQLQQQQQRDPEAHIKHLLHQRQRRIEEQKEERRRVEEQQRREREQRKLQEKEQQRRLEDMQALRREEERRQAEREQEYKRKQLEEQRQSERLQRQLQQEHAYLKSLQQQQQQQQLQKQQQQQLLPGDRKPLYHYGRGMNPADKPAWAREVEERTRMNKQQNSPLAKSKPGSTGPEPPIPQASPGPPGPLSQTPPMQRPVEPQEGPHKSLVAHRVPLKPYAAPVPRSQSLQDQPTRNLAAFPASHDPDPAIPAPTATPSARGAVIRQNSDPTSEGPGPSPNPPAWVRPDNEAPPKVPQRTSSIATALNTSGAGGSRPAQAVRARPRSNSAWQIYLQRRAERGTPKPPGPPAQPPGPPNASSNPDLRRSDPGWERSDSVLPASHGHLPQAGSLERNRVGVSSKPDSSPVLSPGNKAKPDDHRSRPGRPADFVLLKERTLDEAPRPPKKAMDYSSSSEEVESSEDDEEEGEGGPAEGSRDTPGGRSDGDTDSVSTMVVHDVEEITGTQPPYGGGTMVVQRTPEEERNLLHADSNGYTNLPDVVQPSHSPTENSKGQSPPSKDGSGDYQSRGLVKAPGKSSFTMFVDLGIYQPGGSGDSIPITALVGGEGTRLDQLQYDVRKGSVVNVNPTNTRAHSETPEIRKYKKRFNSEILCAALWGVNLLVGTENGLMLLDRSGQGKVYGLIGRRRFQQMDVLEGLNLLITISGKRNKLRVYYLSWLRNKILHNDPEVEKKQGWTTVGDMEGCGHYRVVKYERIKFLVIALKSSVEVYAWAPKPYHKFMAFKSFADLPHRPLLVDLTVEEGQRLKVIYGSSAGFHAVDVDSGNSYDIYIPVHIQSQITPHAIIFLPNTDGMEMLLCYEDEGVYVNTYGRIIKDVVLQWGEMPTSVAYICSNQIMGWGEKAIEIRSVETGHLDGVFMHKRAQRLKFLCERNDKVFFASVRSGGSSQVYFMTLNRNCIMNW

[6] = biological target: Receptor tyrosine-protein kinase erbB-2 (Homo sapiens) (UniProt P04626); details: Compound concentration 1000.0 nM
[7] = biological target: Proto-oncogene tyrosine-protein kinase receptor Ret (Homo sapiens) (UniProt P07949); details: Compound concentration 1000.0 nM
Chain of Proto-oncogene tyrosine-protein kinase receptor Ret (Homo sapiens) (P07949 whole entry): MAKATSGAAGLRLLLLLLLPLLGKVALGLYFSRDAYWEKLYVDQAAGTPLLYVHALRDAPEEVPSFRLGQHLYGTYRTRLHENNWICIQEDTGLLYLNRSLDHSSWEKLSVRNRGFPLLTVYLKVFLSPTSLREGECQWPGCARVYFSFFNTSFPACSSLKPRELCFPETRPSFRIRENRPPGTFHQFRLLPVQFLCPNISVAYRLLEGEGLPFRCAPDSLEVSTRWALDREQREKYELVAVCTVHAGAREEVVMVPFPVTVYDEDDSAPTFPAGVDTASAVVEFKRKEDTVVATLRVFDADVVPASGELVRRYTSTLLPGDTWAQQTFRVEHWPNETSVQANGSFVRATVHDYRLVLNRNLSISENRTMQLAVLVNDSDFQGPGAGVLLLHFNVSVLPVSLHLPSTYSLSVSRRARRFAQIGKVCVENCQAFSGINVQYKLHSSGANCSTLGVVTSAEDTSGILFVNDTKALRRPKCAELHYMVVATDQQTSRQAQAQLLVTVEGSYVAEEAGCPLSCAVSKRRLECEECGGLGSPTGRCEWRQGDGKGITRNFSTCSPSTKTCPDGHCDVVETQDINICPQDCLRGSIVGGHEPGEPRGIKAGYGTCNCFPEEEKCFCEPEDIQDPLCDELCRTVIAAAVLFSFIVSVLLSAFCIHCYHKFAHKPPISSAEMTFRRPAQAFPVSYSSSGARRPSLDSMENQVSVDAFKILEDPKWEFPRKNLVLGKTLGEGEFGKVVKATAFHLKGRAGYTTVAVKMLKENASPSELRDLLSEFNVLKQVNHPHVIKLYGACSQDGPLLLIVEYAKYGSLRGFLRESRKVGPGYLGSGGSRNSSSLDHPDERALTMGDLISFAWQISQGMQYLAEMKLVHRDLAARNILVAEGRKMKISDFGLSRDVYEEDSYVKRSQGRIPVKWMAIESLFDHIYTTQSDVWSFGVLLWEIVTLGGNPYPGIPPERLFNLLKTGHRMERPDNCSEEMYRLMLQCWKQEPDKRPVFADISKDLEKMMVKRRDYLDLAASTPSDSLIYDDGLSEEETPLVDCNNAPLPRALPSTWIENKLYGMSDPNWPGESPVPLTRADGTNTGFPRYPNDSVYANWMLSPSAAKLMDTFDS

[8] = biological target: Ephrin type-A receptor 4 (Homo sapiens) (UniProt P54764); details: Compound concentration 1000.0 nM
[9] = biological target: Interleukin-1 receptor-associated kinase 1 (Homo sapiens) (UniProt P51617); details: Compound concentration 1000.0 nM
[10] = biological target: Bone morphogenetic protein receptor type-1B (Homo sapiens) (UniProt O00238); details: Compound concentration 1000.0 nM
[11] = biological target: Mitogen-activated protein kinase kinase kinase kinase 5 (Homo sapiens) (UniProt Q9Y4K4); details: Compound concentration 1000.0 nM
[12] = biological target: AP2-associated protein kinase 1 (Homo sapiens) (UniProt Q2M2I8); details: Compound concentration 1000.0 nM
[13] = biological target: cAMP-dependent protein kinase catalytic subunit alpha (Homo sapiens) (UniProt P17612); details: Compound concentration 1000.0 nM
[14] = biological target: Ribosomal protein S6 kinase alpha-3 (Homo sapiens) (UniProt P51812); details: Compound concentration 1000.0 nM
Chain of Ribosomal protein S6 kinase alpha-3 (Homo sapiens) (P51812 whole entry): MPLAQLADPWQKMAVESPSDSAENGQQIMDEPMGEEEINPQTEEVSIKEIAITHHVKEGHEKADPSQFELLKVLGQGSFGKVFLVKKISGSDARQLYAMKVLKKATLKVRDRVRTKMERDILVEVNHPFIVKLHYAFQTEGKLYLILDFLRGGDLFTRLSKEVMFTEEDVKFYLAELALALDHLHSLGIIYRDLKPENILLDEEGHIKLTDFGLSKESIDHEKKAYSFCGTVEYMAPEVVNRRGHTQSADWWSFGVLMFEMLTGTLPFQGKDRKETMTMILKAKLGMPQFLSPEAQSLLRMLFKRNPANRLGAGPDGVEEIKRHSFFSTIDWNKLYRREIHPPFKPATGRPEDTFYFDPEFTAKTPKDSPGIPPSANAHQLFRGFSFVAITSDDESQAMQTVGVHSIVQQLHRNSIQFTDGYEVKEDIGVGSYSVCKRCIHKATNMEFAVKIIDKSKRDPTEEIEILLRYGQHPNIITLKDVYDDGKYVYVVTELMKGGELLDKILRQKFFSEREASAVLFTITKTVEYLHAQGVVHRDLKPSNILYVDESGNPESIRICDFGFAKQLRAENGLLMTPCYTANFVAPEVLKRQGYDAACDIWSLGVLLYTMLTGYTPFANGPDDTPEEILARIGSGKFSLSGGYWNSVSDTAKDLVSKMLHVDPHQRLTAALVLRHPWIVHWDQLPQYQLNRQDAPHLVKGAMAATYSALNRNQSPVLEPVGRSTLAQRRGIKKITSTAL

[15] = biological target: Serine/threonine-protein kinase OSR1 (Homo sapiens) (UniProt O95747); details: Compound concentration 1000.0 nM
[16] = biological target: Mitogen-activated protein kinase kinase kinase 19 (Homo sapiens) (UniProt Q56UN5); details: Compound concentration 1000.0 nM
[17] = biological target: Tyrosine-protein kinase SYK (Homo sapiens) (UniProt P43405); details: Compound concentration 1000.0 nM
[18] = system: Phosphatidylinositol 4,5-bisphosphate 3-kinase catalytic subunit alpha isoform (Homo sapiens), P42336 [H1047L]; details: Compound concentration 1000.0 nM
[19] = biological target: Serine/threonine-protein kinase N1 (Homo sapiens) (UniProt Q16512); details: Compound concentration 1000.0 nM
Chain of Serine/threonine-protein kinase N1 (Homo sapiens) (Q16512 2-942 limits assumed): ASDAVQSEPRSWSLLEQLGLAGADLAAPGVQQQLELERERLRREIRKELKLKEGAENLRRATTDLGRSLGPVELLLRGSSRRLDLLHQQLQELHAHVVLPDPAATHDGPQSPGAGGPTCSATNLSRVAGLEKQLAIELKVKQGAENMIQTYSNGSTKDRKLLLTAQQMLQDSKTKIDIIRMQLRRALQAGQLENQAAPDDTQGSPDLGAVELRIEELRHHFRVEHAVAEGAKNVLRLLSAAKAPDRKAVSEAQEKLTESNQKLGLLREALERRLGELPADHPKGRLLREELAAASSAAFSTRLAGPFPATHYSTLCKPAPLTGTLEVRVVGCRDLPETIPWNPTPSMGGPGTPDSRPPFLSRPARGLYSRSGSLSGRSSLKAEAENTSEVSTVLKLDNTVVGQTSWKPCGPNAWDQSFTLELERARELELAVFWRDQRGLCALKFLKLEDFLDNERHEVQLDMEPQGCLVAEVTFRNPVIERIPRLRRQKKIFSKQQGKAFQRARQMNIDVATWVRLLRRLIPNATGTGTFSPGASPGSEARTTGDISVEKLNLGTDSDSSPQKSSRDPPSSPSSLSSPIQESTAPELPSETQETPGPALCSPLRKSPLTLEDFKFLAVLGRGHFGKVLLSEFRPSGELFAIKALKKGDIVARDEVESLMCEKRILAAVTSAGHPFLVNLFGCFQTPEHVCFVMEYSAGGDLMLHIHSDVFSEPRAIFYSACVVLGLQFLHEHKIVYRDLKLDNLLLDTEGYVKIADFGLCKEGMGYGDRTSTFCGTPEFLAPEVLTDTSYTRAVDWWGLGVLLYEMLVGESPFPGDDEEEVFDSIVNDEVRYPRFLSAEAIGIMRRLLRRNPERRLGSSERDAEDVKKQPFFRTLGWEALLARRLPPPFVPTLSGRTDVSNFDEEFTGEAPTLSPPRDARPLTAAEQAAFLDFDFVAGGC

[20] = biological target: Cyclin-dependent kinase-like 3 (Homo sapiens) (UniProt Q8IVW4); details: Compound concentration 1000.0 nM
[21] = biological target: Serine/threonine-protein kinase MAK (Homo sapiens) (UniProt P20794); details: Compound concentration 1000.0 nM
[22] = biological target: Dual specificity mitogen-activated protein kinase kinase 3 (Homo sapiens) (UniProt P46734); details: Compound concentration 1000.0 nM
[23] = biological target: Phosphatidylinositol 4-kinase beta (Homo sapiens) (UniProt Q9UBF8); details: Compound concentration 1000.0 nM
[24] = biological target: T1, Alpha-1A adrenergic receptor (Homo sapiens) (UniProt P35348); details: Compound concentration 10.0 uM
T1 sequence (whole entry): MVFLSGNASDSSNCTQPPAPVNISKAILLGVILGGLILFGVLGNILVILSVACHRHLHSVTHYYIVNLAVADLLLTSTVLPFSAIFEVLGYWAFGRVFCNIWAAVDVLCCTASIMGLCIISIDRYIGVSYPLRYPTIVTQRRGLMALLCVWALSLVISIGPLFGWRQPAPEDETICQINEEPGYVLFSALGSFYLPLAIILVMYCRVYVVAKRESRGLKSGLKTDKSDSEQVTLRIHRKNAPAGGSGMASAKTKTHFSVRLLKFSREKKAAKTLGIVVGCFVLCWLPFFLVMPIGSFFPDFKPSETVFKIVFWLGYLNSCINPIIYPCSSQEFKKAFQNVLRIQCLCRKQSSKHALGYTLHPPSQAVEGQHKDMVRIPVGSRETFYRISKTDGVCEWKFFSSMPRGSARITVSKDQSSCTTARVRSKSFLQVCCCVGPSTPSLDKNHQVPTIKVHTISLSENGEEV

[25] = biological target: Mu-type opioid receptor (Homo sapiens) (UniProt P35372); details: Compound concentration 10.0 uM
[26] = biological target: Cytoplasmic tyrosine-protein kinase BMX (Homo sapiens) (UniProt P51813); details: Compound concentration 1000.0 nM
[27] = biological target: Activin receptor type-2A (Homo sapiens) (UniProt P27037); details: Compound concentration 1000.0 nM
[28] = biological target: Wee1-like protein kinase 2 (Homo sapiens) (UniProt P0C1S8); details: Compound concentration 1000.0 nM
[29] = biological target: cAMP-dependent protein kinase catalytic subunit beta (Homo sapiens) (UniProt P22694); details: Compound concentration 1000.0 nM
[30] = biological target: Death-associated protein kinase 1 (Homo sapiens) (UniProt P53355); details: Compound concentration 1000.0 nM
[31] = biological target: Proto-oncogene tyrosine-protein kinase ROS (Homo sapiens) (UniProt P08922); details: Compound concentration 1000.0 nM
[32] = system: Mast/stem cell growth factor receptor Kit (Homo sapiens), P10721 [D816V]; details: Compound concentration 1000.0 nM
Chain of Mast/stem cell growth factor receptor Kit (Homo sapiens), P10721 [D816V] (P10721 whole entry D816V): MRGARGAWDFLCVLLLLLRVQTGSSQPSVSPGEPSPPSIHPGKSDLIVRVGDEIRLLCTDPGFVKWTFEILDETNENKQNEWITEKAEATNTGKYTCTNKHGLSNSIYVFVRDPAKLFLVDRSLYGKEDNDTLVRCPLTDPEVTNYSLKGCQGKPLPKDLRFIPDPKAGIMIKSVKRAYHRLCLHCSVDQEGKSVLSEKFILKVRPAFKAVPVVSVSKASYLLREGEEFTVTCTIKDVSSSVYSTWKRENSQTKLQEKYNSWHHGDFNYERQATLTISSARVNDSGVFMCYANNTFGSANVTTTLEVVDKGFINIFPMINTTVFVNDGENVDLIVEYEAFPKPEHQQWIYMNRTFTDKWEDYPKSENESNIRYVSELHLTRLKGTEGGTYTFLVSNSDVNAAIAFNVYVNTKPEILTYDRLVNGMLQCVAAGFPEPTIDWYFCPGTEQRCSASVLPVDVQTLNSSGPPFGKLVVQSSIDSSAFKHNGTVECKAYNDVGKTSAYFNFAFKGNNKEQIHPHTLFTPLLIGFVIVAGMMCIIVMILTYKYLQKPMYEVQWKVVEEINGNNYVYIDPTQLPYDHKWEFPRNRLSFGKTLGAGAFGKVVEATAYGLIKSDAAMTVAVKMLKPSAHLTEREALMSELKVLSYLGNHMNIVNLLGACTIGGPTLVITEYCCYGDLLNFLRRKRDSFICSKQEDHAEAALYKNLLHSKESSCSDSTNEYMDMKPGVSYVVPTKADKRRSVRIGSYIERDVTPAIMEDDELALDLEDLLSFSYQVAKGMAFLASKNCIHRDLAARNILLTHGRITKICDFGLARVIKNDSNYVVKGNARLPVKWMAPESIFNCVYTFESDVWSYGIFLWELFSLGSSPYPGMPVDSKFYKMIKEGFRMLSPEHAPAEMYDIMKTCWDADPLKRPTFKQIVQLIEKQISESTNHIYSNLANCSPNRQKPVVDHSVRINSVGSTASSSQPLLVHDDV

[33] = biological target: Serine/threonine-protein kinase DCLK1 (Homo sapiens) (UniProt O15075); details: Compound concentration 1000.0 nM
[34] = biological target: Phosphatidylinositol 5-phosphate 4-kinase type-2 gamma (Homo sapiens) (UniProt Q8TBX8); details: Compound concentration 1000.0 nM
[35] = biological target: 5'-AMP-activated protein kinase catalytic subunit alpha-1 (Homo sapiens) (UniProt Q13131); details: Compound concentration 1000.0 nM
[36] = biological target: Mitogen-activated protein kinase kinase kinase 12 (Homo sapiens) (UniProt Q12852); details: Compound concentration 1000.0 nM
[37] = biological target: Tyrosine-protein kinase Lck (Homo sapiens) (UniProt P06239); details: Compound concentration 1000.0 nM
[38] = biological target: RAF proto-oncogene serine/threonine-protein kinase (Homo sapiens) (UniProt P04049); details: Compound concentration 1000.0 nM
[39] = biological target: Serine/threonine-protein kinase 32B (Homo sapiens) (UniProt Q9NY57); details: Compound concentration 1000.0 nM

CCC(=O)N[C@H]1CC[C@@H](C(=O)N(C)c2ccc(-c3nc4ccccc4o3)cc2)C1 [BI 99179]
inactive: residual activity [1] 100% | residual activity [2] 100% | residual activity [3] 100% | inhibition [4] 2.34% | residual activity [5] 89% | residual activity [6] 100% | residual activity [7] 92% | residual activity [8] 79% | residual activity [9] 83% | residual activity [10] 91% | residual activity [11] 100% | residual activity [12] 100% | residual activity [13] 100% | residual activity [14] 87% | residual activity [15] 83% | residual activity [16] 69% | residual activity [17] 100% | residual activity [18] 78% | residual activity [19] 83% | residual activity [20] 100% | residual activity [21] 85% | residual activity [22] 77% | residual activity [23] 77% | inhibition [24] 22.1% | inhibition [25] 10.3% | residual activity [26] 100% | residual activity [27] 98% | residual activity [28] 96% | residual activity [29] 100% | residual activity [30] 96% | residual activity [31] 93% | residual activity [32] 86% | residual activity [33] 100% | residual activity [34] 100% | residual activity [35] 99% | residual activity [36] 100% | residual activity [37] 89% | residual activity [38] 100% | residual activity [39] 98%

CCC(=O)N[C@@H]1CC[C@H](C(=O)N(C)c2ccc(-c3nc4ccccc4o3)cc2)C1 [BI 99990]
inactive: residual activity [1] 86% | residual activity [2] 100% | residual activity [3] 100% | inhibition [4] -9.08% | residual activity [5] 96% | residual activity [6] 100% | residual activity [7] 93% | residual activity [8] 100% | residual activity [9] 100% | residual activity [10] 100% | residual activity [11] 91% | residual activity [12] 100% | residual activity [13] 100% | residual activity [14] 91% | residual activity [15] 100% | residual activity [16] 92% | residual activity [17] 100% | residual activity [18] 97% | residual activity [19] 84% | residual activity [20] 79% | residual activity [21] 100% | residual activity [22] 91% | residual activity [23] 100% | inhibition [24] 19.4% | inhibition [25] 14.1% | residual activity [26] 98% | residual activity [27] 100% | residual activity [28] 100% | residual activity [29] 100% | residual activity [30] 100% | residual activity [31] 100% | residual activity [32] 89% | residual activity [33] 88% | residual activity [34] 100% | residual activity [35] 91% | residual activity [36] 100% | residual activity [37] 100% | residual activity [38] 94% | residual activity [39] 71%
